Test system: live 4T1 tumor cells
Experiment: Serum IgG antibody binding to live 4T1 tumor cells
Type: in vivo, mice
Details: inactivated 4T1 vaccine day 1 and 14; serum 1:1000 dilution
Method: The vaccines were given subcutaneously in equal volumes in both the left and right forelimb of the mice, close to the foot. Mice received 1.7×10^6 cells per mouse per vaccine. Vaccines were given on day 1 and then again on day 14. Mice were euthanized 8 days after the booster vaccine was given and spleen and blood was collected. The serum from these mice was screened against live 4T1 tumor cells for IgG antibody binding by incubating serum with the cells at either a 1:500 or a 1:1000 dilution, staining with a fluorescently-labeled donkey anti-mouse secondary antibody, then subtracting out the background staining (normal mouse serum at 1:500 and 1:1000).

Compound: CC(C)Cn1cnc2c(N)nc3ccccc3c21 [Imiquimod, imiquimod]
- serum IgG binding to live 4T1 cells (staining): variable amounts
